Source: article PMC10826043 (BMC Complementary Medicine and Therapies, 2024)
Where two headings read alike, the source gives them in different places. Blank lines part the entries; values can stand above or below the molecule they belong to.

Key:
[1] = target: α-amylase; settings: validation set, cited from earlier work
[2] = target: T1, α-amylase from porcine pancreas (Sus scrofa, UniProt P00690); assay: In vitro pancreatic α-amylase inhibitory assay (starch/DNS, 540 nm); format: biochemical; settings: 1% starch, pH 6.9, 25 °C, read-out: IC50 (α-amylase inhibition)
T1 construct: α-amylase from porcine pancreas (A3176); purchased Sigma-Aldrich (Germany) A3176; host or cells: porcine pancreas (tissue-derived)
T1 sequence (P00690 16-511): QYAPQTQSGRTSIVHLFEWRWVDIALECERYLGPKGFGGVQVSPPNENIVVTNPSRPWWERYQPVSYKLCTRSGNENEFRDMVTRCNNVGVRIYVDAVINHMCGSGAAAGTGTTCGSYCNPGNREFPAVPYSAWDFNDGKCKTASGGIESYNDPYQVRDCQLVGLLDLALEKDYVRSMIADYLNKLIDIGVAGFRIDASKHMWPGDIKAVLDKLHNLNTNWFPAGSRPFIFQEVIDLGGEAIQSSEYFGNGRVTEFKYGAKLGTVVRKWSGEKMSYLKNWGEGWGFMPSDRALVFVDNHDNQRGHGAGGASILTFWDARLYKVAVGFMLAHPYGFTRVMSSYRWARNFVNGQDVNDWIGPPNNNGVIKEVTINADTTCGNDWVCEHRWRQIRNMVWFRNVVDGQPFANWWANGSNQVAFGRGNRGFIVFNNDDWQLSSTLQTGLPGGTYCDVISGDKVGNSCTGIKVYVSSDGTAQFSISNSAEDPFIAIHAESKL
Experimental: Analytical purity grade solvents were used throughout the study.
With reference to the established technique, the assay was carried out quantitatively with minor adjustments. Initially, 500µL test solution was preincubated with 500µL α-amylase solution (0.55 unit/mL) at 25°C for 10 min. The α-amylase was prepared in a buffer solution (0.02M sodium phosphate pH 6.9 with 0.006M NaCl). Afterwards, 500µL of 1% w/v starch in buffer solution was mixed in and left to incubate for 10 min at 25°C. To bring the reaction to a halt, 1mL dinitrosalicylic acid (DNS) was introduced and the mixture was placed in a boiling water bath for 3.5 min. After cooling to room temperature, the mixture was then diluted using 10mL distilled water and absorbance was measured using a Laxco spectrophotometer (α1502, Laxco Inc., USA) at λ 540nm. Blanks used throughout the experiment were made by adding pure buffer instead of α-amylase solution. […] To calculate the pancreatic α-amylase inhibitory activity, the following equation was used: %Inhibtion=100×1-Abs540nmExtract-Abs540nmPositivecontrol/Abs540nmNegativecontrol-Abs540nmPositivecontrol

[3] = study encompassing 714 medicated patients; ref [10]; cited from earlier work

Structure (SMILES): O=C(O[C@@H]1Cc2c(O)cc(O)cc2O[C@@H]1c1cc(O)c(O)c(O)c1)c1cc(O)c(O)c(O)c1 [Epigallocatechin gallate]
IC50 ([1]; supplement ref [4]): 11.5 ± 0.02 µM

IC50 [2]: 5010 ± 70 µM
Structure (SMILES): COc1cc(O)c2c(=O)c(O)c(-c3ccc(O)c(O)c3)oc2c1 [Quercetin-7-methylether, quercetin-7-methyl ether]

Structure (SMILES): Oc1cc(O)c2c(c1)O[C@H](c1ccc(O)c(O)c1)[C@H](O)C2 [L-epicatechin]
IC50 ([1]; supplement ref [3]): 31.5 ± 2.21 µM

Structure (SMILES): COc1cc(-c2[o+]c3cc(O)cc(O)c3cc2O[C@@H]2O[C@H](CO)[C@@H](O)[C@H](O)[C@H]2O)ccc1O [Peonidin-3-glucoside]
IC50 ([1]; supplement ref [5]): 75 ± 7 µM

Structure (SMILES): Oc1cc(O)c2c(c1)OC(c1ccc(O)c(O)c1)C(O)C2 (centres unmarked) [Catechin]
IC50 [2]: 5040 ± 40 µM | IC50 ([1]; supplement ref [9]): 1160 ± 24 µM

Structure (SMILES): O=c1cc(-c2ccc(O)cc2)oc2cc(O)cc(O)c12 [Apigenin]
IC50 ([1]; supplement ref [3]): 12.2 ± 2.14 µM

Structure (SMILES): C[C@H]1O[C@H](O[C@H]2[C@H](O)[C@@H](O)[C@@H](O[C@H]3[C@H](O)[C@@H](O)C(O)O[C@@H]3CO)O[C@@H]2CO)[C@H](O)[C@@H](O)[C@@H]1N[C@H]1C=C(CO)[C@@H](O)[C@H](O)[C@H]1O (some centres unmarked) [Acarbose]
participants who discontinued acarbose due to gastrointestinal side effects [3]: 19%

Structure (SMILES): O=c1cc(-c2ccc(O)c(O)c2)oc2cc(O)c(Cl)c(O)c12 [6-Chloro-3',4',5,7-tetrahydroxyflavone]
IC50 ([1]; supplement ref [8]): 44 ± 3 µM

Structure (SMILES): O=c1cc(-c2ccccc2)oc2cc(O)cc(O)c12 [Chrysin]
IC50 ([1]; supplement ref [12]): 15300 ± 374 µM

Structure (SMILES): O=c1c(O)c(-c2cc(O)c(O)c(O)c2)oc2cc(O)cc(O)c12 [Myricetin]
IC50 [2]: 4910 ± 60 µM | IC50 ([1]; supplement ref [8]): 107 ± 6 µM

Structure (SMILES): COc1ccc(-c2oc3cc(O)cc(O)c3c(=O)c2O)cc1 [Kaempferide]
IC50 ([1]; supplement ref [3]): 22.9 ± 3.17 µM

Structure (SMILES): C[C@@H]1O[C@@H](OC[C@H]2O[C@@H](Oc3cc4c(O)cc(O)cc4[o+]c3-c3ccc(O)c(O)c3)[C@H](O)[C@@H](O)[C@@H]2O)[C@H](O)[C@H](O)[C@H]1O [Cyanidin-3-rutinoside]
IC50 ([1]; supplement ref [6]): 24.4 ± 0.1 µM

Structure (SMILES): O=c1cc(-c2ccccc2)oc2cc(O)c(O)c(O)c12 [Baicalein]
IC50 ([1]; supplement ref [12]): 11200 ± 200 µM

Structure (SMILES): O=c1cc(-c2ccc(O)c(O)c2)oc2cc(O)ccc12 [7, 3', 4'-trihydroxyflavone]
IC50 ([1]; supplement ref [3]): 16.3 ± 0.52 µM

Structure (SMILES): COc1c(-c2ccc(O)c(O)c2)oc2cc(O)cc(O)c2c1=O [Quercetin-3-methylether, quercetin-3-methyl ether]
IC50 [2]: 6370 ± 110 µM | IC50 ([1]; supplement ref [3]): 13.6 ± 2.04 µM

Structure (SMILES): O=C(O)c1ccc(O)c(O)c1 [Protocatechuic acid]
IC50 ([1]; supplement ref [10]): 2650 ± 160 µM

Structure (SMILES): O=C(O)C=Cc1ccc(O)cc1 [p-Coumaric acid]
IC50 ([1]; supplement ref [13]): 34100 µM

Structure (SMILES): O=c1c(O)c(-c2ccc(O)c(O)c2)oc2cc(OC3OC(CO)C(O)C(O)C3O)c(O)c(O)c12 [Quercetagetin-7-O-β-D-glucopyranoside]
IC50 ([1]; supplement ref [3]): 8.04 ± 0.69 µM

Structure (SMILES): O=C1C[C@@H](c2ccc(O)cc2)Oc2cc(O)cc(O)c21 [Naringenin]
IC50 ([1]; supplement ref [3]): 21.9 ± 3.21 µM

Structure (SMILES): O=c1c(Cc2ccc(O)cc2)coc2cc(O)cc(O)c12 [5,7-dihydroxy-3-(4′-hydroxybenzyl) chromone]
IC50 ([1]; supplement ref [11]): 2590 ± 50 µM
